Tests used:
primary cortical neurons = test: Dihydroethidium (DHE) superoxide assay in primary cortical neurons; type: cell-based, mice
Description: Primary cortical neurons were prepared from the cortex of mice on embryonic day 15, as described previously. In brief, the embryo's cortex was isolated in Hanks' balanced salt solution and centrifuged at 176×g (1000 rpm) for 3 minutes. After aspirating the solution, cells were incubated with 0.25% trypsin for 15 minutes and seeded 20,000/well in a 96-well plate coated with the poly-D-lysin (Gibco, Cat No. A3890401). They were incubated in Neurobasal medium (Gibco, Cat No. 21103049) with 2% B27 supplement (Gibco, Cat No. 10889038), 1% penicillin/streptomycin, and 1% Glutamax (Gibco, Cat No. 35050061) until day 11 when they were used for experiments.
To examine whether GSSSG reduces ROS generated by paclitaxel, we conducted Dihydroethidium (DHE) assay (Abcam, Cat No. ab236206) that is sensitive to superoxide. The experiment was done according to protocol provided by the manufacturer. Briefly, primary cortical neurons were incubated in DHE reagent with or without 10 and 30 μM of GSSSG for 30 minutes. After incubating, 100 nM of paclitaxel was administered, and cells were incubated for one hour. Fluorescence of DHE was measured at 490 nm of excitation and 585 nm of emission wavelength.

[1] = system: Nrf2-dependent antioxidant signaling in DRG; test: real-time qPCR of antioxidant genes in lumbar DRG; type: in vivo, mice; conditions: 2 hours after single 16 mg/kg paclitaxel i.p. with or without 50 mg/kg GSSSG oral
Description: Changes in gene expression in lumber dorsal root ganglions (DRG) induced by paclitaxel and GSSSG were examined with real-time qPCR after a single administration of paclitaxel with or without GSSSG. We simultaneously administered 16 mg/kg paclitaxel by intraperitoneal injection and 50 mg/kg GSSSG by oral gavage and examined the mRNA expression 2 hours later. Lumbar DRG were isolated from mice as described previously. Removed DRG were immersed in RNA later (Invitrogen, Cat No. AM7020) at 4° C. overnight. After retrieving from RNA later, they were stored at −80° C. DRGs were homogenized in TRIzol reagent (ThermoFisher Scientific, Cat No. 15596026) and mixed with chloroform. After centrifugation at 14000×g at 4° C. for 15 minutes, the transparent top layer was transferred to a new tube. The samples were mixed with 400 μl of isopropanol and incubated at −20° C. for 20 minutes. After centrifugation at 14000×g at 4° C. for 15 minutes, the pellets were collected, mixed with 70% ethanol, and centrifuged at 14000×g at 4° C. for 10 minutes. The pellets were dried for 10 minutes and incubated with 50 μl of nuclease-free water. Complementary DNA was synthesized using the cDNA Reverse Transcription Kit (Applied Biosystems, Cat No. 4368814) and quantitative PCR was performed by using SYBR green (Applied Biosystems, Cat No. A46109). Relative quantification of gene expression was performed via 2^−ΔΔCT method.

[2] = system: intraepidermal nerve fibers of hind paws; test: density of intraepidermal nerve fibers in hind paw skin (immunohistochemistry); type: in vivo, mice (C57BL/6J); conditions: for density of intraepidermal nerve fibers: paclitaxel alone
Description: Paclitaxel (Sigma-Aldrich) was dissolved with ethanol and cremophor (1:1) and diluted with normal saline (1:4). Peripheral neuropathy was induced in mice by intraperitoneal (i.p.) administration of 4 mg/kg paclitaxel every other day for a total of 4 injections (cumulative dose of 16 mg/kg), according to a previously described protocol. A stable, crystallized form of GSSSG was produced and provided by Kyowa Hakko Bio CO., LTD. GSSSG was pulverized and mixed in 0.5% methylcellulose. To evaluate the therapeutic effects of GSSSG in a model of PIPN, mice were randomly divided into three groups of 6. Mice were treated with: 1) paclitaxel alone; 2) paclitaxel and GSSSG; 3) or vehicle alone (control). Mice in groups 1 and 2 received paclitaxel as described above, while mice in the control group received the same volume of vehicle. The first dose of GSSSG was given within 1 hour after the first PTX injection. Treatment was administered as oral gavage for 28 days with GSSSG at 50 mg/kg/day (group 2) or 0.5% methylcellulose (groups 1 and 3). The dose of GSSSG was determined based on pilot studies. To determine the effect of GSSSG on the development of PIPN, behavioral tests to assess allodynia and hyperalgesia were conducted on all mice on days-1 (baseline), 7, 14, 21, and 28 after paclitaxel administration. Behavioral tests were performed by an investigator who was blinded to the treatment groups, as described in the next section. Density of intraepidermal nerve fiber (fibers/mm) of hind paws was calculated to evaluate peripheral nerve fiber damage by paclitaxel. Mice were deeply anesthetized with Isoflurane (4%) and euthanized by exsanguination on week 1 or week 4 after paclitaxel treatment for tissue harvest. […] Ten images per mouse (6 mice per group) were taken by fluorescence microscopy (Nikon Eclipse 80i, Nikon Instruments, Inc., Melville, NY), and four out of ten images were randomly selected. The density (fibers/mm basement membrane) was calculated as the number of intraepidermal nerve fiber divided by the length of basement membrane in accordance with the guideline.

| SMILES | paclitaxel-induced increase of intracellular superoxide (DHE) (primary cortical neurons; 10 μM GSSSG co-incubation with 100 nM paclitaxel, vs paclitaxel) | Nrf2 mRNA levels [1] | expression of GCLC [1] | expression of HO1 [1] | levels of NQO1 mRNA [1] | paclitaxel-induced loss of intraepidermal nerve fibers ([2]; daily oral 50 mg/kg GSSSG in paclitaxel-treated mice, 4 weeks after starting paclitaxel) | intracellular levels of superoxide (DHE) (primary cortical neurons; 100 nM paclitaxel for one hour, vs control) | density of intraepidermal nerve fibers ([2]; 1 week after starting paclitaxel) | density of intraepidermal nerve fibers ([2]; 4 weeks after starting paclitaxel) |
| --- | --- | --- | --- | --- | --- | --- | --- | --- | --- |
| N[C@@H](CCC(=O)N[C@@H](CSSSC[C@H](NC(=O)CC[C@H](N)C(=O)O)C(=O)NCC(=O)O)C(=O)NCC(=O)O)C(=O)O [GSSSG, glutathione trisulfide] | prevented the paclitaxel-induced increase of intracellular superoxide | increased Nrf2 mRNA levels | upregulated | upregulated | modestly increased | prevented paclitaxel-induced loss of intraepidermal nerve fibers | – | – | – |
| CC(=O)O[C@H]1C(=O)[C@@]2(C)[C@H]([C@H](OC(=O)c3ccccc3)[C@]3(O)C[C@H](OC(=O)[C@H](O)[C@@H](NC(=O)c4ccccc4)c4ccccc4)C(C)=C1C3(C)C)[C@]1(OC(C)=O)CO[C@@H]1C[C@@H]2O [paclitaxel, Paclitaxel, reference compound] | – | increased Nrf2 mRNA levels | not paclitaxel alone | not paclitaxel alone | not paclitaxel alone | – | increased | not at 1 week | decreased the density of intraepidermal nerve fibers at 4 weeks |

Reference: US20260097091A1, “ADMINISTRATION OF GLUTATHIONE TRISULFIDE TO AMELIORATE PERIPHERAL NEUROPATHY” (The General Hospital Corporation, priority 2022, published 2026)
